According to patent US20140296143A1, “Angiotensin-(1-7) As A Chemoprevention Agent” (Wake Forest Innovations, priority 2008, published 2014):

Tests used:
ERK2 = conditions: SK-LU-1, 10 nM pretreatment; Gallagher et al., 2004; cited from earlier work
[1] = test system: ZR-75-1 breast cancer cells; conditions: U.S. Pat. No. 7,375,073; cited from earlier work
cellular levels of cAMP = conditions: 1 μM, in the presence of 1 mM IBMX; n=3; U.S. Pat. No. 7,375,075; cited from earlier work
[2] = test system: SK-LU-1 lung cancer cells; assay type: cell-based, human
Experimental: Cells were grown to subconfluence in either 24-well cluster plates or 100 mm dishes and made quiescent by treatment for 48 h with serum-depleted growth media, prior to the experiments outlined below to measure cell growth (^3H-thymidine incorporation), cell signaling or apoptosis.
Subsequently, the cell monolayer was washed with cold phosphate-buffered saline (PBS; 50 mM NaPO4, 120 mM NaCl, pH=7.2). The adherent cells were precipitated with cold 10% TCA (4° C. for 30 min) and dissolved in 0.2% SDS in 0.1 N NaOH.
During an additional 4 h, cell monolayers were pulsed with ^3H-thymidine (0.25 μCi/well) and harvested.

[3] = test system: poly(ADP-ribose) polymerase (PARP); assay: Cleaved PARP (caspase-3 cleavage product) in serum-stimulated SK-LU-1 cells; assay type: cell-based, human; conditions: SK-LU-1, 10 nM, 4 to 8 hour treatment
Experimental: Proteins were separated electrophoretically on SDS polyacrylamide gels, transferred to polyvinyl membranes, and incubated with primary antibodies to proteins of interest. Appropriate horseradish peroxidase (HRP)-conjugated second antibodies were added and immunoreactive products visualized using the enhanced chemoluminescence reagents from Amersham. The density of each immunoreactive product was quantified using the MCID imaging system. Antibodies to proteins that participate in cell signaling, apopotosis, and regulation of the cell cycle are commercially available from a variety of sources.
Since caspase-3 is activated during apoptosis, an increase in the generation of its […] can be a measure of apoptosis.

caspase-9 = assay: Caspase-9 activity in A549 cell lysates; assay type: cell-based, human; conditions: A549 cells, 100 nM

For `CC[C@H](C)[C@H](NC(=O)[C@H](Cc1ccc(O)cc1)NC(=O)[C@@H](NC(=O)[C@H](CCCNC(=N)N)NC(=O)[C@@H](N)CC(=O)O)C(C)C)C(=O)N[C@@H](Cc1c[nH]cn1)C(=O)N1CCC[C@H]1C(=O)O` [Ang-(1-7), Asp-Arg-Val-Tyr-Ile-His-Pro], the “reduction of serum-stimulated phosphorylation of ERK2” value (ERK2) is listed as 68%, the “inhibition of PDGF- or EGF-stimulated ^3H-thymidine incorporation” value [1] is listed as “at least 50%” and the “cellular levels of cAMP” value (cellular levels of cAMP) is listed as 131.9±9.7 % of basal. For the same compound, the “^3H-thymidine incorporation over time of treatment” value ([2]; SK-LU-1, 1% FBS, daily addition of 100 nM) was “progressively reduced”, the “effect on serum-stimulated ^3H-thymidine incorporation” value ([2]; SK-LU-1, peptide at 1 or 100 nM) was “reduced” and the “amount of cleaved PARP” value [3] was “increase”. For the same compound, the caspase-9 activity (caspase-9) was “no effect”.
